79 compounds from the METLIN SMRT retention time set (Domingo-Almenara et al. 2019) can be followed below.

This data set is described as follows: gradient 5% acetonitrile 3 min, to 50% in 2 min, to 85% in 15 min, held 3 min, 100 µL/min. To be noted: column: Zorbax Extend-C18 2.1 x 50 mm; eluents: water / acetonitrile, 0.1% formic acid. An outline of the steps: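 Each retention time is based on an adduct peak selected computationally and verified by manual inspection. Measurements used HPLC–quadrupole time-of-flight mass spectrometry in positive and negative ionization mode on mixtures of ~100 pure standards. Chromatography ran on a Zorbax Extend-C18 column (2.1 × 50 mm, 1.8 μm) at 100 μL/min with water and acetonitrile, each containing 0.1% formic acid, and dead and dwell volumes of 40 μL and 900 μL.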
`CCc1nc(-c2csc(S(=O)(=O)N3CCC(C(=O)Nc4ccc(F)c(Cl)c4)CC3)c2)no1`: the RP-LC retention time was 1150 s.

The compound `O=C(Cn1cnc(-c2nc(-c3ccccc3)cs2)c1)Nc1cc(F)ccc1F` displayed an RP-LC retention time of 825 s.

Consider `CC(C)CN(CC(C)C)c1nc(-c2ccc(C(C)(C)C)cc2)nc2ccccc12`, for which the RP-LC retention time is 1240 s.

Regarding `CCCNC(=O)C1CCN(c2ccc(SCC(=O)Nc3cc(C)ccc3C)nn2)CC1`, the RP-LC retention time was determined as 656 s.

`COc1ccc(S(=O)(=O)N2CC3CN(C(=O)Cc4cccc(F)c4)CC(C2)O3)cc1`: the RP-LC retention time was found to be 825 s.

`Cc1nnc(NC(=O)CSc2nnc(C3COc4ccccc4O3)o2)s1` (centres undefined) returned an RP-LC retention time of 699 s.

For `CCOc1ccc(CNC(=O)c2c(C)sc3ccn(CC(C)C)c(=O)c23)cc1`, the RP-LC retention time stood at 1010 s.

`O=C1CCCc2cc(S(=O)(=O)NCCc3ccc(Cl)cc3)ccc2N1` had an RP-LC retention time of 800 s.

`Cc1cccc(N2C(=O)CN(CC(C)C)[C@H]3CS(=O)(=O)C[C@H]32)c1` came in with an RP-LC retention time of 836 s.

Turning to `COc1ccc(-c2cc(C(F)(F)F)n3nc(C(=O)O)cc3n2)cc1`, the RP-LC retention time stood at 851 s.

On to `Cc1nc2ccn(Cc3ccco3)c(=O)c2cc1C(=O)NCc1ccco1`, for which the RP-LC retention time was 718 s.

`CCOC(=O)C(C)NC(=O)N1CCN(Cc2nc3cccnc3n2-c2ccc(CC)cc2)CC1` (centres undefined) returned an RP-LC retention time of 659 s.

For `O=C1c2ccccc2C(=O)c2c1cccc2N1CCCC(CO)C1` (centres undefined), the RP-LC retention time came to 635 s.

In turn, `Cc1cc(OCC(=O)Nc2c(C)cccc2C)nc(N2CCN(c3ccccc3)CC2)n1` had an RP-LC retention time of 861 s.

`Cc1sc2ccn(CC(C)C)c(=O)c2c1C(=O)NCCN1CCN(C)CC1` had an RP-LC retention time of 574 s.

As to `CN(C)C(=O)c1csc(S(=O)(=O)N2CCC(C(=O)N3CCN(c4ccccc4)CC3)CC2)c1`, the RP-LC retention time was found to be 768 s.

On to `COc1ccc(C(=O)N2c3ccccc3NC3=C(C(=O)CCC3)C2c2ccco2)cc1` (centres undefined), for which the RP-LC retention time is 762 s.

Compound `COc1ccc(N2C(=O)CC(c3ccc(OC)c(OC)c3)CC2=O)cc1` showed an RP-LC retention time of 780 s.

On to `CCN1N=C(C(=O)N2CCC(C)CC2)S(=O)(=O)c2ccccc21`, for which the RP-LC retention time was 844 s.

Turning to `CCOc1ccccc1CN1C[C@@H](CO)[C@H](c2ccccn2)C1`, the RP-LC retention time stood at 620 s.

For `Cc1nc(-c2noc(-c3ccccc3)n2)cn1CC(=O)NCc1ccc(F)c(Cl)c1`, the RP-LC retention time was found to be 866 s.

In the case of `CCc1csc(-c2cn(CC(=O)NCc3cccc(C(F)(F)F)c3)cn2)n1`, the RP-LC retention time was 768 s.

Regarding `CCOc1cccc(-c2noc(Cn3c(=O)n(CC)c(=O)c4ccccc43)n2)c1`, the RP-LC retention time came to 983 s.

The compound `CCCC(=O)Nc1ccc(-c2cn3ccc(C)nc3n2)cc1` gave an RP-LC retention time of 587 s.

`Cc1cccc(NC(=O)Cn2c(C)nc3c(sc4nc(-c5ccccc5)ccc43)c2=O)c1C` came in with an RP-LC retention time of 1170 s.

In turn, `CCC(C)(C)C(=O)NC1CCN(C2=NS(=O)(=O)C(c3cccc(Cl)c3)=C2C)CC1` yielded an RP-LC retention time of 915 s.

With `CCN1CCN(c2cc(C)c3cc(NC(=O)COc4ccc(OC)cc4)ccc3n2)CC1`, the RP-LC retention time is 597 s.

Compound `Cc1nc(-c2cc(S(=O)(=O)N3CCCCC3C)c(C)s2)sc1C` (centres undefined) yielded an RP-LC retention time of 1220 s.

Compound `Cc1ccn2cc(C(=O)NC3CCCCC3)nc2c1` displayed an RP-LC retention time of 627 s.

On to `CC(C)c1nc(-c2ccc(OC3CCN(C(=O)Cc4c[nH]c5ccccc45)C3)cc2)no1` (centres undefined), for which the RP-LC retention time was 923 s.

Turning to `Cc1ccc(CNC(=O)CCCn2nc(-n3cccc3)c3c(C)cc(C)nc32)cc1`, the RP-LC retention time came to 1050 s.

For the compound `O=[N+]([O-])c1ccc(CNc2nc(NCc3cccc(C(F)(F)F)c3)nc3nc[nH]c23)cc1`, the RP-LC retention time was found to be 790 s.

Take `CCNC(=O)N1CCC(OC2CCN(Cc3ccccc3)CC2)CC1`: the RP-LC retention time came to 570 s.

Regarding `CCNC(=O)C1CCN(c2nc3ccc(-c4ccc(OC)cc4)nc3s2)CC1`, the RP-LC retention time is 825 s.

`CCOC(=O)N1CCC(N2CCCC(COc3ccccc3C(=O)N3CCCC3)C2)CC1` (centres undefined) gave an RP-LC retention time of 612 s.

As for `CCN(Cc1ccccc1)c1ccc(-c2noc(CN3CCOCC3)n2)cn1`, the RP-LC retention time stood at 826 s.

On to `Cc1cc(C(=O)N(CCn2nc(C)cc2C)c2nc3c(C(C)C)cccc3s2)on1`, for which the RP-LC retention time turned out to be 1200 s.

Compound `Cc1ccc(Sc2nccnc2N2CCC(C(=O)N3CCN(c4cccc(C)c4)CC3)CC2)cc1` came in with an RP-LC retention time of 1310 s.

`CCOc1ccc(NC(=O)NCCn2c(C(F)(F)F)nc3cccnc32)cc1` came in with an RP-LC retention time of 756 s.

In turn, `CCc1ccc(-c2noc(CSc3nc4cc5c(cc4c(=O)n3CCOC)OCO5)n2)cc1` displayed an RP-LC retention time of 1190 s.

Turning to `COc1ccccc1CNC(=O)c1nc(N2CCOCC2)c2c(C)cc(C)nc2n1`, the RP-LC retention time was 643 s.

Regarding `CCCCN1CCC(F)(c2nc(-c3ccccc3)no2)CC1`, the RP-LC retention time worked out at 691 s.

Take `Cc1ccc(CCNC(=O)C2CCCN(C(=O)c3cc4sccc4n3C)C2)cc1` (centres undefined): the RP-LC retention time came out at 911 s.

With `O=C(Cn1nc(-c2nc(-c3ccc(Cl)cc3)no2)ccc1=O)N1CCCC1`, the RP-LC retention time turned out to be 848 s.

Regarding `CNCCc1cnc(CCC(c2ccccc2)c2ccccc2)[nH]1`, the RP-LC retention time amounted to 608 s.

Compound `Cc1ccccc1-c1noc(-c2cccn(CC(=O)NC(C)C)c2=O)n1` came in with an RP-LC retention time of 761 s.

`O=C(NCc1cccs1)C(=O)NCC1(c2ccc(F)cc2)CC1` had an RP-LC retention time of 727 s.

Turning to `N#Cc1cccc(Cn2c(-c3nc(-c4ccccc4)no3)cccc2=O)c1`, the RP-LC retention time came to 688 s.

`CC1=C(c2ccc(C)cc2)S(=O)(=O)N=C1N1CCCN(C(=O)c2ccc(C#N)cc2)CC1` returned an RP-LC retention time of 835 s.

On to `COc1ccc(-c2noc(-c3ccc(N4CCC(N5CCCCC5)CC4)nc3)n2)cc1`, for which the RP-LC retention time worked out at 738 s.

As to `CCN(CC)c1ncc2c(n1)CCC(C(=O)NCc1cccc(OC)c1)C2` (centres undefined), the RP-LC retention time turned out to be 695 s.

On to `OCCN1CCN(c2ncnc3c2cnn3-c2ccccc2Cl)CC1`, for which the RP-LC retention time was 592 s.

`O=S(=O)(c1ccc(-c2nnc(C3CC3)o2)o1)N1CCN(c2ccccn2)CC1` returned an RP-LC retention time of 632 s.

The compound `CCN1CCCCc2cc(C(=O)N(C)CCN(C)C)sc21` returned an RP-LC retention time of 638 s.

The compound `COc1ccc(S(=O)(=O)N2CCC(c3cnn(-c4cccc(C)c4)c3)CC2)cc1` had an RP-LC retention time of 1130 s.

Consider `CCn1cc(C)c(C(=O)O)c1CC(=O)Nc1cc(F)ccc1F`, for which the RP-LC retention time amounted to 859 s.

As to `O=C(Cc1nnc2c(-c3nc(C4CC4)no3)cccn12)N1CCOCC1`, the RP-LC retention time came to 609 s.

As for `O=C(NCc1ccccc1F)c1cc(=O)n2c(nc3ccccc32)s1`, the RP-LC retention time came out at 876 s.

In turn, `COC1CCC12CCN(C(=O)c1cccs1)CC2` (centres undefined) showed an RP-LC retention time of 748 s.

For `CCOC(=O)c1noc2ncnc(Nc3cc(Cl)ccc3OC)c12`, the RP-LC retention time came out at 1080 s.

`CCc1cc(=O)n(CC(=O)Nc2c(C)cccc2C)c(N2CCOCC2)n1` yielded an RP-LC retention time of 736 s.

`CCS(=O)(=O)c1ccc(-c2ccc(NC(=O)c3cc(Cl)ccc3Cl)cc2)nn1` registered an RP-LC retention time of 840 s.

On to `Cc1ccc(NC(=O)C2CCCN(c3ncnc4c3nc3n4CCCCC3)C2)cc1Cl` (centres undefined), for which the RP-LC retention time worked out at 958 s.

For `Cc1ccc(-c2nc3cnccn3c2Nc2ccccc2C)cc1`, the RP-LC retention time came to 969 s.

`Cc1ccc(NC(=O)c2cnc3c(c2)c(=O)n(C)c(=O)n3-c2ccccc2)cc1F` gave an RP-LC retention time of 956 s.

As to `CN(C)CCNC(=O)c1c(-c2ccccc2)c(-c2ccccc2)nn(C)c1=O`, the RP-LC retention time stood at 628 s.

For `CCn1cc(C)c(C(=O)O)c1CC(=O)NCc1ccc(C)cc1`, the RP-LC retention time was 772 s.

For the compound `O=C(NCCn1c(=O)n(Cc2ccc(F)cc2)c2cccnc21)C1CCCC1`, the RP-LC retention time was 782 s.

`CN(C)S(=O)(=O)c1ccc2c(c1)N(CC(=O)NCCc1cccs1)C(=O)C1CCCCN21` (centres undefined): the RP-LC retention time came to 876 s.

The compound `COc1cc(-c2noc(C3CC(=O)N(c4ccc(C)c(F)c4)C3)n2)cc(OC)c1OC` (centres undefined) registered an RP-LC retention time of 976 s.

On to `Cc1ccc(N2CCC(NC(=O)Nc3cccc(C)c3C)C2=O)cc1` (centres undefined), for which the RP-LC retention time amounted to 945 s.

Turning to `CC(C)n1c(=O)sc2cc(S(=O)(=O)N3CCC(C(=O)NCc4ccco4)CC3)ccc21`, the RP-LC retention time amounted to 861 s.

Consider `O=S(=O)(c1cccs1)N1CCN(c2ccc(Nc3cccnc3)nn2)CC1`, for which the RP-LC retention time worked out at 548 s.

Take `Cc1cccc(-n2c(N)cc(=O)nc2SCC(=O)Nc2nc(-c3ccccc3)cs2)c1`: the RP-LC retention time is 738 s.

Compound `CN1CCC(N2CCN(C(=O)C3CCc4sc(C(=O)N5CCCC5)cc4C3)CC2)CC1` (centres undefined) showed an RP-LC retention time of 558 s.

As to `CCCn1cc2c3c(cccc31)CN(C(=O)Nc1cc(OC)c(OC)c(OC)c1)CC2`, the RP-LC retention time was 970 s.

`CC(C(=O)N1CCN(C2CCCCC2)CC1)C1CCN(S(=O)(=O)c2cccs2)CC1` (centres undefined) yielded an RP-LC retention time of 664 s.

In the case of `COc1ccccc1-c1nnc(NC(=O)COc2ccccc2)o1`, the RP-LC retention time amounted to 707 s.

In turn, `CCc1ccc(CNC(=O)C2CCCN(c3ncnc4nn(-c5ccc(C)cc5)cc34)C2)cc1` (centres undefined) showed an RP-LC retention time of 787 s.
